Six molecules from patent US3933838A, “5-Substituted 2-amino-4-arylthiazoles” (Instituto Luso Farmaco d'Italia S.r.l., priority 1972, dated 1976) can be followed below.

One data set can be described thus: LD50 rats. In kind it is in vivo. The settings on record: rat, in vivo.
Data set [1] concerns rats. Briefly: LD50 rats. In kind it is in vivo. The settings on record: oral.
Data set [2] concerns rats. Briefly: analgesic action, Randall Selitto, rats. In kind it is in vivo. Particulars: oral; for ED50: Rattus norvegicus. The source says: (§1) The analgesic action has been assessed in rats (Arch. int. Pharmacodyn. 1957, 111 : 409) and in mice (Boll. Chim. Farm. 1968, 107 : 29), the antipyretic action in rats (J. Pharmacol. exp. Ther. 1963, 141 : 369); and the anti-cough action in guinea pigs made to inhale 4% ammonia.
(§2) Whenever possible the ED50 values have been calculated.

The test system of the next data set is guinea pigs. The data set can be described thus: anti-cough action in guinea pigs made to inhale 4% ammonia. It is filed as in vivo. The settings on record: intraperitoneal.
Text: as §1, §2

Data set [3] deals with mice. The data set can be described thus: analgesic action, stretching acetic acid, mice. It is filed as in vivo. The settings on record: oral; for ED50: Mus musculus.
Text: as §1, §2

Data set [4] deals with adult rats. Briefly: anti-inflammatory action, carragenin oedema test in rats. The settings on record: for ED50: Rattus norvegicus, read-out: anti-inflammatory action rats ED50, carrageenin oedema. In kind it is in vivo.
Text: (§3) The anti-inflammatory action has been studied in adult rats by using the carragenin oedema test (Proc. Soc. exp. Biol. Med. 1962, 111 : 544) and the granuloma from an extraneous substance (J. Amer. Pharm. Ass., Sci. Ed. 1957, 46 : 515).
as §2
On the technique in general: Carrageenan injected into the paw causes an acute inflammation.

The subject of data set [5] is adult rats. Briefly: anti-inflammatory action, granuloma from an extraneous substance in rats. In kind it is in vivo. Particulars: Rattus norvegicus, 168 h; oral × 7 days.
Text: as §3, §2

Data set [6] relates to rats. The data set can be described thus: antipyretic action in rats. The settings on record: oral. In kind it is in vivo.
Text: as §1, §2

Data set [7] relates to mice. Briefly: analgesic action, tail clip, mice. Particulars: oral. It is filed as in vivo.
Text: as §1, §2

A further data set is described as follows: LD50 mice. The settings on record: mouse, in vivo.
For data set [8], the system named is rats. The data set can be described thus: anti-ulcer action in rats kept without food for 24 hours and motionless for 4 hours. In kind it is in vivo. The settings on record: 10 mg/kg intraperitoneal. The method, then: The anti-ulcer property has been studied in rats kept without food for 24 hours and motionless for 4 hours (Therapie 1960, 15 : 1096).
[9] abbreviates: intraperitoneal, 200 mg/kg maximum dose.

In general, LD50 refers to the dose at which mortality reaches 50%. What is called ED50 is the dose at which the effect has come halfway, by size or by number of responders. On to `O=C(O)Cc1sc(Nc2ccccc2)nc1-c1ccc(Cl)cc1` [LR 330, (2-phenylamino-4-p-chlorophenyl-thiazol-5-yl)-acetic acid], for which the LD50 in “LD50 rats” (ip, intraperitoneal) is greater than 1000 mg/kg; in the data set “LD50 rats” (po), greater than 2000 mg/kg; in the data set with rats [1], greater than 3000 mg/kg; in the data set “LD50 mice” (ip, intraperitoneal), greater than 1000 mg/kg; in the data set “LD50 mice” (oral), greater than 3000 mg/kg. Moreover, the ED50 worked out at 200 mg/kg with rats [2]; 75 mg/kg in the data set with mice [3]; 75 mg/kg in the data set with adult rats [4] (ip, intraperitoneal); 400 mg/kg with adult rats [4] (oral); 400 mg/kg in the data set on adult rats [5]. Further, the “anti-coughing action, effect at maximum dose administered” value (from here on “anti-coughing action, effect”) in the data set on guinea pigs (200 mg/kg maximum dose) is “.phi”. Also, the “anti-pyretic action, effect at maximum dose administered” value (“anti-pyretic action, effect” for short) with rats [6] (200 mg/kg maximum dose) is “.phi”. In the data set with mice [7] (200 mg/kg maximum dose), the “tail clip, effect at maximum dose administered” value (from here on “tail clip, effect”) is “.phi”.
Regarding `Nc1nc(-c2ccc(Cl)cc2)c(CC(=O)O)s1` [LR 331, (2-amino-4-p-chlorophenyl-thiazol-5-yl)-acetic acid], the LD50 in “LD50 rats” (ip, intraperitoneal) is 840 mg/kg; in the data set “LD50 rats” (po), greater than 1000 mg/kg; in “LD50 mice” (ip, intraperitoneal) it was 800 mg/kg; in the data set “LD50 mice” (oral) it was greater than 5000 mg/kg. In the data set on rats [2] (175 mg/kg maximum dose), the “Randall Selitto, effect at maximum dose administered” value was determined as 15%. Moreover, the “anti-coughing action, effect” value in the data set on guinea pigs (50 mg/kg maximum dose) amounted to 17%. Moreover, in the data set on rats [8], the “anti-ulcer action, protected rats in %” value was 30%. In addition, in the data set on rats [8], the “anti-ulcer action, reduction in number of ulcers in %” value (from here on “anti-ulcer action, reduction … in %”) stood at 52%. The ED50 in the data set on mice [3] came to 132 mg/kg; in the data set on adult rats [4] (ip, intraperitoneal), 140 mg/kg; in the data set on adult rats [4] (oral), 300 mg/kg; in the data set on adult rats [5] it was 300 mg/kg. Further, in the data set with rats [6] (400 mg/kg maximum dose), the “anti-pyretic action, effect” value is given as “.phi”. Further, in the data set on mice [7] (175 mg/kg maximum dose), the “tail clip, effect” value is given as “.phi”.
Turning to `O=C(O)Cc1sc(NC(=O)Nc2ccccc2)nc1-c1ccc(Cl)cc1` [LR 364, [2-(phenylamino-carbonylamino)-4-p-chlorophenyl-thiazol-5-yl]-acetic acid], the “anti-coughing action, effect” value in the data set with guinea pigs (200 mg/kg maximum dose) is “.phi”. In the data set on rats [8], the “anti-ulcer action, protected rats in %” value was 30% and the “anti-ulcer action, reduction … in %” value was 59%. Further, the “stretching acetic acid, effect at maximum dose administered” value (from here on “stretching acetic acid, effect”) in the data set with mice [3] (200 mg/kg maximum dose) is recorded as 31%. In addition, the “carrageenin oedema, effect at maximum dose administered” value (“carrageenin oedema, effect” for short) in the data set with adult rats [4] (setting [9]) is on record as “.phi”. In the data set with mice [7] (200 mg/kg maximum dose), the “tail clip, effect” value is “.phi”. Also, in “LD50 mice” (ip, intraperitoneal), the LD50 was greater than 1000 mg/kg.
`CCN(CC)CCNC(=O)Cc1sc(N)nc1-c1ccc(Cl)cc1` [LR 450, (2-amino-4-p-chlorophenyl-thiazol-5-yl)-N-(N',N' diethylaminoethyl)-acetamide]: the LD50 in “LD50 rats” (ip, intraperitoneal) stood at 47 mg/kg; in the data set “LD50 rats” (po) it was 915 mg/kg; in the data set “LD50 mice” (ip, intraperitoneal) it was 43 mg/kg; in “LD50 mice” (oral), 238 mg/kg. Further, in the data set on rats [2] (100 mg/kg maximum dose), the “Randall Selitto, effect at maximum dose administered” value is given as 18%. Further, in the data set with guinea pigs (12 mg/kg maximum dose), the “anti-coughing action, effect” value is listed as “.phi”. In addition, in the data set on rats [8], the “anti-ulcer action, protected rats in %” value was determined as 65%. Besides, the “anti-ulcer action, reduction … in %” value in the data set on rats [8] was 69%. In addition, the “stretching acetic acid, effect” value in the data set on mice [3] (100 mg/kg maximum dose) was found to be 27%. For the same molecule, the “carrageenin oedema, effect” value worked out at 36% with adult rats [4] (intraperitoneal, 6 mg/kg maximum dose) and 35% in the data set on adult rats [4] (oral, 100 mg/kg maximum dose). Further, the ED50 in the data set with adult rats [5] worked out at 100 mg/kg. The “anti-pyretic action, effect” value in the data set with rats [6] (100 mg/kg maximum dose) is 38%. The “tail clip, effect” value in the data set on mice [7] (50 mg/kg maximum dose) is on record as “.phi”.
`CCN(CC)c1nc(-c2ccc(Cl)cc2)c(CC(=O)O)s1` [LR 407, (2-n,n-diethylamino-4-p-chlorophenyl-thiazol-5-yl)-acetic acid]: the LD50 in “LD50 rats” (ip, intraperitoneal) was 385 mg/kg; in “LD50 rats” (po), greater than 1500 mg/kg; in the data set “LD50 mice” (ip, intraperitoneal), 400 mg/kg; in “LD50 mice” (oral) it was 1260 mg/kg. Further, the ED50 in the data set on rats [2] was greater than 400 mg/kg; with guinea pigs (Cavia porcellus, ip, read-out: anti-coughing action guinea pigs ED50), 34 mg/kg; in the data set with mice [3], 26 mg/kg; with adult rats [4] (ip, intraperitoneal), 60 mg/kg; in the data set with adult rats [4] (oral), 120 mg/kg; with adult rats [5], 170 mg/kg. The ED50 in the data set with rats [6] (Rattus norvegicus, read-out: anti-pyretic action rats ED50) stood at 73 mg/kg; in the data set with mice [7] (Mus musculus), 48 mg/kg. Besides, the “anti-ulcer action, reduction … in %” value in the data set on rats [8] is listed as 23%.
As to `O=C(O)Cc1sc(Nc2c(Cl)cccc2Cl)nc1-c1ccccc1` [LR 396, [2-n-(2', 6'-dichlorophenyl)-amino-4-phenyl-thiazol-5-yl]-acetic acid], in the data set with rats [8], the “anti-ulcer action, protected rats in %” value was found to be 40% and the “anti-ulcer action, reduction … in %” value was determined as 45%. The “stretching acetic acid, effect” value with mice [3] (100 mg/kg maximum dose) is reported as 26%. In addition, the “carrageenin oedema, effect” value in the data set with adult rats [4] (setting [9]) was “.phi”. Further, the LD50 in “LD50 mice” (ip, intraperitoneal) was greater than 1000 mg/kg.
